Activity data for one compound are collected here from ChEMBL document CHEMBL1221220, “Transport and signaling via the amino acid binding site of the yeast Gap1 amino acid transceptor” (Nat Chem Biol, 2009).

In assay [1] the test system is T1, General amino-acid permease GAP1 (Saccharomyces cerevisiae), P19145 [L387C].
T1 sequence (whole entry): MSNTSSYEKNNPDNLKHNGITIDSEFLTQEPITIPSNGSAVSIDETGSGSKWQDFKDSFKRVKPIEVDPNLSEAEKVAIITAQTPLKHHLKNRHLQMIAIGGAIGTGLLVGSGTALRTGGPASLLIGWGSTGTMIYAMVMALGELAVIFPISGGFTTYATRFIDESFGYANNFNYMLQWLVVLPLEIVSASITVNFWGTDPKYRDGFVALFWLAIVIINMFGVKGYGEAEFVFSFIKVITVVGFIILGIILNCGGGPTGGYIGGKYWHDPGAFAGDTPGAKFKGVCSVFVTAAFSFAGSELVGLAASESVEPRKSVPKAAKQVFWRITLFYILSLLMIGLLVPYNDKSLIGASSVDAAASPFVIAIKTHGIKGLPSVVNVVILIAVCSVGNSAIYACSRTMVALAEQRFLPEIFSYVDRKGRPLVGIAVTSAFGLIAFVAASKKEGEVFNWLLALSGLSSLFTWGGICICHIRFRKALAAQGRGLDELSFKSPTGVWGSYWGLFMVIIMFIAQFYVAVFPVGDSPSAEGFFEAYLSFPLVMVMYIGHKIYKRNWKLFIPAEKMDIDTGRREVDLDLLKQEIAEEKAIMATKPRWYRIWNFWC
Kind of assay: Induction of yeast Gap1 L387C mutant-mediated amino acid uptake at 2 mM in presence of 10 mM MTSEA treated before compound addition.

Assay [2] deals with T2, General amino-acid permease GAP1 (Saccharomyces cerevisiae), P19145 [N391C].
T2 sequence (whole entry): T1 sequence (whole entry) with C387L, N391C
Kind of assay: Activation of yeast Gap1 N391C mutant-mediated amino acid uptake at 10 mM.

Assay [3] relates to T3, General amino-acid permease GAP1 (Saccharomyces cerevisiae), P19145 [A403C].
T3 sequence (whole entry): T1 sequence (whole entry) with C387L, A403C
Description: Activation of yeast Gap1 A403C mutant-mediated amino acid uptake at 10 mM.

The test system is the same in assay [4]. Kind of assay: Induction of yeast Gap1 A403C mutant-mediated amino acid uptake at 2 mM in presence of 10 mM MTSEA treated before compound addition.
The test system of assay [5] is T4, General amino-acid permease GAP1 (Saccharomyces cerevisiae), P19145 [L383C].
T4 sequence (whole entry): T1 sequence (whole entry) with L383C, C387L
Description: Activation of yeast Gap1 L383C mutant-mediated amino acid uptake at 10 mM.

SMILES strings stand for the structures. Where a chain is given by its changes, count along the chain named. The source made the active and inactive calls. No cut-off for these calls is given here.

Regarding `NC(=O)NCCC[C@H](N)C(=O)O`, the outcome in assay [1] and in assay [4] was Active. Also, the outcome in assay [2], in assay [3] and in assay [5] was inactive.
